Earlier results as cited in patent US20240000730A1, “ANTIHISTAMINE SEMI-SOLID CHEWABLE GEL COMPOSITIONS AND METHODS OF MAKING AND USING THEREOF” (Seattle Gummy Company, priority 2021, published 2024).

Columns and labels:
[1] = ITC measurements
[2] = ITC measurements; remark: listed apart in the source
[3] = ITC measurements; remark: listed apart in the source

SMILES: O=C(O)COCCN1CCN(C(c2ccccc2)c2ccc(Cl)cc2)CC1 (stereo not drawn) [Cetirizine, cetirizine]
- association constant K(a) of the cetirizine-α-cyclodextrin complex [1]: 1434 ± 60 M⁻¹
- association constant K(a) of the cetirizine-β-cyclodextrin complex [2]: 5641 ± 358 M⁻¹
- association constant of the cetirizine-γ-cyclodextrin complex [3]: 1200±50 (−1)
